# According to US10059975B2, “Methods for the isolation and identification of microorganisms” (bioMerieux, Inc., priority 2008, dated 2018):
# Key:
# Type in all cases: cell-based
# [1] = system: Streptococcus pneumoniae, strain WM-43; assay: Effect of detergent type on Gram reactivity, viability and intrinsic fluorophores; design: key to Viability of Pellet: NG (no growth); 4+(maximal growth); conditions: for Gram Stain of Pellet: Bacteria (cocci): detergent in 0.3M CAPS, pH 11.7, 1 min at 37° C.; for Viability of Pellet: 1:100 dilution of resuspended pellet plated on Sheep Blood Agar, scale NG to 4+; for effect on Gram reaction/reactivity of the S. pneumoniae isolate (in words): Table 4
# Method: Lysis buffers were prepared containing detergents of differing structure and lytic activity in a base buffer formulation of 0.3M CAPS, pH 11.7. These lysis buffers were functionally assessed using positive blood culture broth containing a clinical microorganism strain known to be sensitive to detergents and alkaline pH conditions, Streptococcus pneumoniae, strain WM-43. Parameters evaluated were microbial intrinsic fluorescence levels (Excitation-Emission Matrix spectra), separation efficiency, appearance of isolated microbial pellet, and Gram stain characteristics and viability of microorganisms recovered from the pellet beneath the density cushion.
# The procedure was performed as follows:
# Mix 2 parts of positive broth with 1 part of test lysis buffer, incubate in a 37° C. water bath for 1 minute to lyse blood cells, then layer 0.5 mL of lysate over 0.2 mL of density cushion (14% w/v Iohexyl+1.93% w/v NaCl+10 mM Hepes, pH 7.4) dispensed into a 2-piece optical separation tube which was then hermetically sealed with a screw-cap. After centrifuging the tube in an Eppendorf 5417R microcentrifuge fitted with a A-8-11 swing out rotor for 2 minutes at 10,000 rpm, the tube was placed into a custom-built adapter which coupled the base of the tube directly to a 400 micron fiber optic probe connected to a spectrofluorimeter (Fluorolog® 3 from Horiba Jobin-Yvon, New Jersey), and a complete EEM scan was taken (Ex 260-850 nm; Em 260-1100 nm; every 5 nm). Following the scan, the supernatant was removed and the microbial pellet resuspended in 0.5 mL of Tryptic Soy Broth (TSB). Smears of the suspensions were prepared for Gram staining and twenty microliters of a 1:100 dilution were plated onto Sheep Blood Agar plates for viability estimation on a scale of NG (no growth) to 4+(maximal growth).
# [2] = system: S. pneumoniae strain, WM43; assay: Further testing of lysis buffers in combination with density cushions; conditions: irrespective of the makeup of the density cushion
# [3] = system: A. actinomycetecomitans; assay: Viable counts following lysis buffer treatment
# Method: (§1) A screening model was developed to enable testing the sensitivity of a larger number of microbial isolates to several detergents. Briefly, suspensions of test fastidious microorganisms were spiked into human blood-containing BacT/ALERT® SA culture media at 10^3-10^5 CFU/mL. Samples were treated with test Lysis Buffers for 1-5 minutes at 37 C, then if required, diluted 1:100 into TSB and plated for viable counts.
# [4] = system: C. hominis; assay: Viable counts following lysis buffer treatment
# Method: as §1
# [5] = system: H. influenzae; assay: Viable counts following lysis buffer treatment
# Method: as §1
# [6] = system: H. parainfluenzae; assay: Viable counts following lysis buffer treatment
# Method: as §1
# [7] = system: N. meningitidis; assay: Viable counts following lysis buffer treatment
# Method: as §1
# [8] = system: S. pneumoniae WM43; assay: Viable counts following lysis buffer treatment
# Method: as §1
# [9] = system: S. pneumoniae WM48; assay: Viable counts following lysis buffer treatment
# Method: as §1
# [10] = system: fastidious microorganisms; assay: Screening model, summary over the panel; conditions: summary of the colony counts of Table 6
# Method: as §1
# [11] = system: S. pneumoniae, S. pyogenes, S. agalactiae, S. mitis, P. mirabilis, K. pneumoniae and E. coli; assay: Follow up experiment: viability after 5-minute contact time; conditions: data not shown
molecule,measurement,setting,value
"CCCCCCCCO[C@@H]1O[C@H](CO)[C@@H](O)[C@H](O)[C@H]1O [Detergent 1, n-octyl glucoside, reference compound]",Gram Stain of Pellet: Bacteria (cocci),[1],No organisms seen
"C[C@H](CCC(=O)NCCC[N+](C)(C)CCCS(=O)(=O)[O-])[C@H]1CC[C@H]2[C@@H]3[C@H](O)C[C@@H]4C[C@H](O)CC[C@]4(C)[C@H]3C[C@H](O)[C@]12C [Detergent 2, CHAPS, reference compound]",Gram Stain of Pellet: Bacteria (cocci),[1],Rare Gram negative
"CCCCCCCCCCCCOCCOCCOCCOCCOCCOCCOCCOCCOCCO [Detergent 6, nonaethylene glycol monododecyl ether, reference compound]",Viability of Pellet,[1],4+
same,effect on Gram reaction/reactivity of the S. pneumoniae isolate (in words),[1],relatively minor effect
same,viability of the recovered S. pneumoniae cells (in words),[2],not as high
Arlasolve 200 [Detergent 11],Gram Stain of Pellet: Bacteria (cocci),[1],3+ Gram positive
Brij ® 96V [Detergent 9],Gram Stain of Pellet: Bacteria (cocci),[1],3+ Gram positive
Brij ® 97 [Detergent 10],Viability of Pellet,[1],4+
same,Gram Stain of Pellet: Bacteria (cocci),[1],3+ Gram positive
same,Viable Counts Following Lysis Buffer Treatment,[3]; 1 min at 37 C,0
same,Viable Counts Following Lysis Buffer Treatment,[3]; 5 min at 37 C,0
same,Viable Counts Following Lysis Buffer Treatment,[4]; 1 min at 37 C,74
same,Viable Counts Following Lysis Buffer Treatment,[4]; 5 min at 37 C,28
same,Viable Counts Following Lysis Buffer Treatment,[5]; 1 min at 37 C,0
same,Viable Counts Following Lysis Buffer Treatment,[5]; 5 min at 37 C,0
same,Viable Counts Following Lysis Buffer Treatment,[6]; 1 min at 37 C,124
same,Viable Counts Following Lysis Buffer Treatment,[6]; 5 min at 37 C,19
same,Viable Counts Following Lysis Buffer Treatment,[7]; 1 min at 37 C,0
same,Viable Counts Following Lysis Buffer Treatment,[7]; 5 min at 37 C,0
same,Viable Counts Following Lysis Buffer Treatment,[8]; 1 min at 37 C,18
same,Viable Counts Following Lysis Buffer Treatment,[8]; 5 min at 37 C,7
same,Viable Counts Following Lysis Buffer Treatment,[9]; 1 min at 37 C,14
same,Viable Counts Following Lysis Buffer Treatment,[9]; 5 min at 37 C,11
same,toxicity over the panel (in words),[10],minimal toxicity
same,viability (in words),[11],remained unaffected
Brij ® 98 [Detergent 12],Gram Stain of Pellet: Bacteria (cocci),[1],3+ Gram positive
Genapol ® C-100 [Detergent 7],Gram Stain of Pellet: Bacteria (cocci),[1],3+ Gram positive
same,Viable Counts Following Lysis Buffer Treatment,[3]; 1 min at 37 C,0
same,Viable Counts Following Lysis Buffer Treatment,[3]; 5 min at 37 C,0
same,Viable Counts Following Lysis Buffer Treatment,[4]; 1 min at 37 C,0
same,Viable Counts Following Lysis Buffer Treatment,[4]; 5 min at 37 C,0
same,toxicity (in words),[4]; compared with Brij® 97,slightly more toxic
same,Viable Counts Following Lysis Buffer Treatment,[5]; 1 min at 37 C,0
same,Viable Counts Following Lysis Buffer Treatment,[5]; 5 min at 37 C,0
same,Viable Counts Following Lysis Buffer Treatment,[6]; 1 min at 37 C,0
same,Viable Counts Following Lysis Buffer Treatment,[6]; 5 min at 37 C,0
same,toxicity (in words),[6]; compared with Brij® 97,slightly more toxic
same,Viable Counts Following Lysis Buffer Treatment,[7]; 1 min at 37 C,0
same,Viable Counts Following Lysis Buffer Treatment,[7]; 5 min at 37 C,0
same,Viable Counts Following Lysis Buffer Treatment,[8]; 1 min at 37 C,30
same,Viable Counts Following Lysis Buffer Treatment,[8]; 5 min at 37 C,19
same,Viable Counts Following Lysis Buffer Treatment,[9]; 1 min at 37 C,17
same,Viable Counts Following Lysis Buffer Treatment,[9]; 5 min at 37 C,12
same,viability (in words),[11],remained unaffected
Genapol ® X-080 [Detergent 5],effect on Gram reaction/reactivity of the S. pneumoniae isolate (in words),[1],relatively minor effect
Genapol ® X-100 [Detergent 8],Viability of Pellet,[1],4+
same,Gram Stain of Pellet: Bacteria (cocci),[1],3+ Gram positive
Triton ® X100-R [Detergent 3],Gram Stain of Pellet: Bacteria (cocci),[1],2+ Gram negative
same,viability of the recovered S. pneumoniae cells (in words),[2],not as high
